Source: US20250000987A1, “RETINOIC ACID COMPOUND, PHARMACEUTICAL COMPOSITION THEREOF AND USE THEREOF” (Mastery Biotech CO., LTD., priority 2022, published 2025)

Assays:
[1] = biological target: SARS-COV-2 PLpro (Severe acute respiratory syndrome coronavirus 2, UniProt P0DTD1); format: biochemical
[2] = system: SARS-COV-2; conditions: Example 2; 0.35 mg/kg intranasally twice daily, 3-day treatment; versus isotretinoin and liposome-encapsulated isotretinoin; FIG. 3
Source text: Golden Syrian hamsters (aged 5-6 weeks old and having an average weight of about 100 g) were obtained from the National Laboratory Animal Center (Taipei, Taiwan). The hamsters were housed in an animal room under specific-pathogen-free (SPF) conditions commonly applied in the art. Furthermore, water and feed were provided ad libitum for all the hamsters.
The hamsters were infected with SARS-COV-2 (obtained from P3 Lab, the Genomics Research Center, Academia Sinica; WuHan wild type) in phosphate buffered saline (PBS) through intranasal inoculation at 1×10^4 plaque-forming units (PFU) on 12:00 PM so as to establish a SARS-COV-2 animal model.
The infected hamsters obtained as mentioned above were divided into the following four groups (n=5 per group): a control group (abbreviated as “Control”), two comparative groups (respectively abbreviated as “Comparative_1” and “Comparative_2”) and one experimental group (abbreviated as “Experimental_1”). […]
After the 3-day treatment, the hamsters were sacrificed, and the lungs thereof were collected for live viral load measurement by TCID50 assay in Vero E6 cells. The virus titer was determined in terms of the 50% tissue culture infectious dose (TCID50) using the Reed-Muench method. […]
The experimental data were analyzed by Tukey's test so as to evaluate the differences between the groups. […]

Structure (SMILES): CC1=C(/C=C/C(C)=C/C=C/C(C)=C\C(=O)NCCCO[C@@H]2O[C@H](CO)[C@H](O)[C@H](O)[C@H]2O)C(C)(C)CCC1 [Galactose-modified isotretinoin, (2Z,4E,6E,8E)-3,7-dimethyl-N-(3-(((2R,3R,4S,5R,6R)-3,4,5-trihydroxy-6-(hydroxymethyl)tetrahydro-2H-pyran-2-yl)oxy)propyl)-9-(2,6,6-trimethylcyclohex-1-en-1-yl) nona-2,4,6,8-tetraenamide]
- Inhibition percentage (%) ([1]; Example 1, 50 μM inhibiting agent, PLpro 0.9 μM, preincubation 30 minutes, 30° C., 300 seconds, mean±standard deviation): 34.21 ± 0.17%
- inhibiting the enzymatic activity of PLpro, comparison in words ([1]; versus isotretinoin or the individual components, FIG. 2, FIG. 11): more effective than isotretinoin only
- TCID50 (lung virus titer) [2]: significantly lower
